Where “and” joins values, the source holds several entries; their conditions need not be identical. Equal values may be shown once. Toxic doses and inconclusive results are not listed. No stated cut-off is given here; in the data, active means T/C of 150% or more; inactive means T/C below 125%.
System: L1210 leukemia ip in BDF1 mice, survival T/C
Test: NCI In Vivo Anticancer Drug Screen. Data for tumor model L1210 Leukemia (intraperitoneal) in B6D2F1 (BDF1) mice
Conditions: endpoint: mean survival time, higher = longer survival
In short: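 Mice bearing the transplanted tumor received compound or vehicle. Survival of the treated group was divided by that of the vehicle-treated control group to give the ratio.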

[1] = dose: 50.0 mg/kg/injection, schedule: Q01DX009 (ip), vehicle: Klucel (hydroxypropylcellulose) (HPC)
[2] = dose: 100.0 mg/kg/injection, schedule: Q01DX009 (ip), vehicle: Klucel (hydroxypropylcellulose) (HPC)
[3] = dose: 100.0 mg/kg/injection, schedule: Q04DX003 (ip), vehicle: Klucel (hydroxypropylcellulose) (HPC)
[4] = dose: 200.0 mg/kg/injection, schedule: Q04DX003 (ip), vehicle: Klucel (hydroxypropylcellulose) (HPC)
[5] = dose: 25.0 mg/kg/injection, schedule: Q04DX003 (ip), vehicle: saline
[6] = dose: 100.0 mg/kg/injection, schedule: Q01DX001 (ip), vehicle: saline with Tween-80
[7] = dose: 200.0 mg/kg/injection, schedule: Q01DX001 (ip), vehicle: saline with Tween-80
[8] = dose: 400.0 mg/kg/injection, schedule: Q04DX003 (ip), vehicle: Klucel (hydroxypropylcellulose) (HPC)
[9] = dose: 200.0 mg/kg/injection, schedule: Q01DX009 (ip), vehicle: Klucel (hydroxypropylcellulose) (HPC)
[10] = dose: 400.0 mg/kg/injection, schedule: Q01DX009 (ip), vehicle: Klucel (hydroxypropylcellulose) (HPC)
[11] = dose: 50.0 mg/kg/injection, schedule: Q01DX009 (ip), vehicle: saline
[12] = dose: 100.0 mg/kg/injection, schedule: Q01DX001 (ip), vehicle: saline
[13] = dose: 100.0 mg/kg/injection, schedule: Q01DX009 (ip), vehicle: saline
[14] = dose: 100.0 mg/kg/injection, schedule: Q01DX001 (ip), vehicle: Klucel (hydroxypropylcellulose) (HPC)
[15] = dose: 200.0 mg/kg/injection, schedule: Q01DX001 (ip), vehicle: Klucel (hydroxypropylcellulose) (HPC)
[16] = dose: 400.0 mg/kg/injection, schedule: Q01DX001 (ip), vehicle: Klucel (hydroxypropylcellulose) (HPC)
[17] = dose: 200.0 mg/kg/injection, schedule: Q01DX009 (ip), vehicle: saline
[18] = dose: 400.0 mg/kg/injection, schedule: Q01DX009 (ip), vehicle: saline

Measured: T/C

O=c1ccc(=O)c2c(=O)c3ccccc3c(=O)c1=2
inactive: [1] 97 % of control | [2] 95 % of control | [3] 101 % of control | [4] 103 % of control

N=C(N)c1ccc(OCCCOc2ccc(C(=N)N)cc2Br)c(Br)c1
inactive: dose: 6.25 mg/kg/injection, schedule: Q01DX009 (ip), vehicle: saline 100 % of control | dose: 6.25 mg/kg/injection, schedule: Q04DX003 (ip), vehicle: saline 99 % of control | dose: 12.5 mg/kg/injection, schedule: Q01DX009 (ip), vehicle: saline 115 % of control | dose: 12.5 mg/kg/injection, schedule: Q04DX003 (ip), vehicle: saline 99 % of control | dose: 16.5 mg/kg/injection, schedule: Q01DX009 (ip), vehicle: saline 123 % of control | dose: 18.0 mg/kg/injection, schedule: Q01DX Z (ip), vehicle: methylcellulose (MC) 110 % of control | [5] 92 % of control | dose: 27.0 mg/kg/injection, schedule: Q01DX Z (ip), vehicle: methylcellulose (MC) 113 % of control | dose: 37.5 mg/kg/injection, schedule: Q01DX009 (ip), vehicle: saline 107 % of control | dose: 40.0 mg/kg/injection, schedule: Q01DX Z (ip), vehicle: methylcellulose (MC) 103 % of control | dose: 60.0 mg/kg/injection, schedule: Q01DX Z (ip), vehicle: methylcellulose (MC) 113 % of control

CC[n+]1ccc(Nc2ccc(NC(=O)c3ccc([N+](=O)[O-])cc3)cc2)cc1
inactive: dose: 12.5 mg/kg/injection, schedule: Q01DX009 (ip), vehicle: saline with Tween-80 100 % of control | dose: 25.0 mg/kg/injection, schedule: Q01DX009 (ip), vehicle: saline with Tween-80 91 % of control | dose: 50.0 mg/kg/injection, schedule: Q01DX009 (ip), vehicle: saline with Tween-80 88 % of control | [6] 100 % of control | dose: 100.0 mg/kg/injection, schedule: Q01DX009 (ip), vehicle: saline with Tween-80 92 % of control | [7] 110 % of control | dose: 400.0 mg/kg/injection, schedule: Q01DX001 (ip), vehicle: saline with Tween-80 98 % of control

C=COC(=O)CCCCCCCCCCCCCCCCC
inactive: [3] 101 % of control | [4] 100 % of control | [8] 103 % of control

Cc1ccc([N+](=O)[O-])c(OC(=O)Nc2ccc(Cl)c(Cl)c2)c1
inactive: [2] 101 % of control | [3] 96 % of control and 106 % of control | [9] 101 % of control | [4] 88 % of control | [10] 114 % of control | [8] 87 % of control and 91 % of control

CC(CCc1ccccn1)C(=O)c1ccccc1 (centres undefined)
inactive: dose: 222.0 mg/kg/injection, schedule: Q01DX Z (ip), vehicle: methylcellulose (MC) 93 % of control | dose: 333.0 mg/kg/injection, schedule: Q01DX Z (ip), vehicle: methylcellulose (MC) 98 % of control | dose: 500.0 mg/kg/injection, schedule: Q01DX Z (ip), vehicle: methylcellulose (MC) 94 % of control

O=C1CCCC[CH]1[Hg][Cl] (centres undefined)
inactive: dose: 1.25 mg/kg/injection, schedule: Q01DX001 (ip), vehicle: saline 95 % of control | dose: 2.5 mg/kg/injection, schedule: Q01DX001 (ip), vehicle: saline 96 % of control | dose: 5.0 mg/kg/injection, schedule: Q01DX001 (ip), vehicle: saline 87 % of control

Nc1nc(N)c(N)c(N=O)n1
inactive: dose: 100.0 mg/kg/injection, schedule: Q01DX Z (ip), vehicle: methylcellulose (MC) 86 % of control

CCN1CCC(CN2c3ccccc3Sc3ccccc32)C1 (centres undefined)
inactive: dose: 25.0 mg/kg/injection, schedule: Q01DX009 (ip), vehicle: saline 105 % of control | [5] 94 % of control | [11] 110 % of control | dose: 50.0 mg/kg/injection, schedule: Q04DX003 (ip), vehicle: saline 102 % of control | [12] 98 % of control | dose: 100.0 mg/kg/injection, schedule: Q04DX003 (ip), vehicle: saline 112 % of control

Cc1c(C)c2c(c(C)c1O)SC(CC(=O)O)C(=O)O2 (centres undefined)
inactive: [3] 100 % of control | [4] 100 % of control | [8] 100 % of control

ClC/C=[CH]/[Sn]([c]1ccccc1)([c]1ccccc1)[c]1ccccc1
inactive: [11] 112 % of control | [13] 116 % of control

COc1cc2c(c3c1CCC(C)(C)O3)Cc1c(cc(OC)c(OC)c1CCC(C)(C)O)O2
inactive: [14] 103 % of control | [15] 96 % of control | [16] 92 % of control

O=NN(CC(=O)O)c1cccnc1
inactive: dose: 25.0 mg/kg/injection, schedule: Q01DX009 (ip), vehicle: Klucel (hydroxypropylcellulose) (HPC) 98 % of control | [1] 101 % of control | [2] 107 % of control

NC(Cc1c[nH]c2ccccc12)C(=O)O (centres undefined)
inactive: [6] 95 % of control | [13] 100 % of control | [7] 98 % of control | [17] 94 % of control | dose: 300.0 mg/kg/injection, schedule: Q01DX001 (ip), vehicle: saline with Tween-80 92 % of control | [18] 94 % of control | dose: 800.0 mg/kg/injection, schedule: Q01DX009 (ip), vehicle: saline 94 % of control

COc1ccc(C(C)(O)c2cc3ccccc3n2S(=O)(=O)c2ccccc2)cc1 (centres undefined)
inactive: dose: 50.0 mg/kg/injection, schedule: Q04DX002 (ip), vehicle: Klucel (hydroxypropylcellulose) (HPC) 102 % of control | dose: 100.0 mg/kg/injection, schedule: Q04DX002 (ip), vehicle: Klucel (hydroxypropylcellulose) (HPC) 95 % of control | dose: 200.0 mg/kg/injection, schedule: Q04DX002 (ip), vehicle: Klucel (hydroxypropylcellulose) (HPC) 95 % of control

O=Cc1cc(C(=O)c2ccccn2)c2cc(Cl)cc(Cl)c2n1
inactive: [14] 94 % of control | [2] 107 % of control | [15] 89 % of control | [9] 96 % of control | [16] 94 % of control

O=S(=O)(Cc1ccccc1)C(Cl)(Cl)c1ccccc1
inactive: [12] 91 % of control | [2] 96 % of control | [3] 110 % of control | dose: 200.0 mg/kg/injection, schedule: Q01DX001 (ip), vehicle: saline 107 % of control | [9] 102 % of control | [4] 104 % of control | dose: 400.0 mg/kg/injection, schedule: Q01DX001 (ip), vehicle: saline 105 % of control | [10] 95 % of control | [8] 103 % of control

CCCCCCCC(=O)OCCCl
inactive: [13] 94 % of control | [17] 97 % of control | [18] 91 % of control

CC(=O)OC1CCC2(C)C(CCC3C2CC(=O)C2(C)C3CC(N3CC3)C2C(C)=O)C1 (centres undefined)
inactive: dose: 100.0 mg/kg/injection, schedule: Q01DX001 (sc), vehicle: steriod suspending solution 89 % of control | dose: 200.0 mg/kg/injection, schedule: Q01DX001 (sc), vehicle: steriod suspending solution 99 % of control | dose: 400.0 mg/kg/injection, schedule: Q01DX001 (sc), vehicle: steriod suspending solution 99 % of control

Cc1ccc(NC(=O)Oc2c(C)cccc2C)c([N+](=O)[O-])c1
inactive: [1] 93 % of control | [2] 87 % of control

O=C(O)CNC1CSSC1
inactive: dose: 25.0 mg/kg/injection, schedule: Q01DX009 (ip), vehicle: water 106 % of control | dose: 50.0 mg/kg/injection, schedule: Q01DX009 (ip), vehicle: water 106 % of control

Cc1cc(C)c2ccc(NC(=O)CCC(=O)O)nc2n1
inactive: [12] 95 % of control

COc1ccc(C=Nc2cc(Cl)ccc2O)cc1
inactive: dose: 100.0 mg/kg/injection, schedule: Q01DX001 (ip), vehicle: carboxymethylcellulose (CMC) 89 % of control | dose: 200.0 mg/kg/injection, schedule: Q01DX001 (ip), vehicle: carboxymethylcellulose (CMC) 95 % of control | dose: 400.0 mg/kg/injection, schedule: Q01DX001 (ip), vehicle: carboxymethylcellulose (CMC) 95 % of control

CC(=O)Nc1ccccc1F
inactive: [2] 105 % of control | [3] 101 % of control | [9] 105 % of control | [4] 102 % of control | [10] 103 % of control | [8] 95 % of control

From PubChem BioAssay AID248 (DTP/NCI, 2004)
